Patent US9839639B2, “Neprilysin inhibitors” (THERAVANCE BIOPHARMA R&D IP, LLC, priority 2014, dated 2017)

The molecules below were run against T1, human NEP (Homo sapiens, UniProt P08473) (assay: In vitro enzyme inhibition assay, inhibitor potency at human NEP). Settings: recombinant human NEP, fluorogenic peptide substrate 10 μM, 37° C.; values given as ranges.
T1 construct: purchased R&D Systems, Minneapolis, Minn; 1182-ZN
Type: biochemical
Protocol: The inhibitory activities of compounds at human and rat neprilysin (EC 3.4.24.11; NEP) and human angiotensin converting enzyme (ACE) were determined using in vitro assays as described below.
Recombinant human NEP and recombinant human ACE were obtained commercially (R&D Systems, Minneapolis, Minn., catalog numbers 1182-ZN and 929-ZN, respectively). The fluorogenic peptide substrate Mca-D-Arg-Arg-Leu-Dap-(Dnp)-OH (Medeiros et al. (1997) Braz. J. Med. Biol. Res. 30:1157-62; Anaspec, San Jose, Calif.) and Abz-Phe-Arg-Lys(Dnp)-Pro-OH (Araujo et al. (2000) Biochemistry 39:8519-8525; Bachem, Torrance, Calif.) were used in the NEP and ACE assays respectively.
The assays were performed in 384-well white opaque plates at 37° C. using the fluorogenic peptide substrates at a concentration of 10 μM in Assay Buffer (NEP: 50 mM HEPES, pH 7.5, 100 mM NaCl, 0.01% polyethylene glycol sorbitan monolaurate (Tween-20), 10 μM ZnSO4; ACE: 50 mM HEPES, pH 7.5, 100 mM NaCl, 0.01% Tween-20, 1 μM ZnSO4).
Test compounds were assayed over the range of concentrations from 10 μM to 20 pM. Test compounds were added to the enzymes and incubated for 30 minute at 37° C. prior to initiating the reaction by the addition of substrate. Reactions were terminated after 20 minutes of incubation at 37° C. by the addition of glacial acetic acid to a final concentration of 3.6% (v/v).
Plates were read on a fluorometer with excitation and emission wavelengths set to 320 nm and 405 nm, respectively. Inhibition constants were obtained by nonlinear regression of the data using the equation (GraphPad Software, Inc., San Diego, Calif.): v=v0/[1+(I/K′)] where v is the reaction rate, v0 is the uninhibited reaction rate, I is the inhibitor concentration and K′ is the apparent inhibition constant.
Compounds of the invention were tested in this assay and found to have pKi values at human NEP as follows.

T1 sequence (P08473 52-750 limits assumed): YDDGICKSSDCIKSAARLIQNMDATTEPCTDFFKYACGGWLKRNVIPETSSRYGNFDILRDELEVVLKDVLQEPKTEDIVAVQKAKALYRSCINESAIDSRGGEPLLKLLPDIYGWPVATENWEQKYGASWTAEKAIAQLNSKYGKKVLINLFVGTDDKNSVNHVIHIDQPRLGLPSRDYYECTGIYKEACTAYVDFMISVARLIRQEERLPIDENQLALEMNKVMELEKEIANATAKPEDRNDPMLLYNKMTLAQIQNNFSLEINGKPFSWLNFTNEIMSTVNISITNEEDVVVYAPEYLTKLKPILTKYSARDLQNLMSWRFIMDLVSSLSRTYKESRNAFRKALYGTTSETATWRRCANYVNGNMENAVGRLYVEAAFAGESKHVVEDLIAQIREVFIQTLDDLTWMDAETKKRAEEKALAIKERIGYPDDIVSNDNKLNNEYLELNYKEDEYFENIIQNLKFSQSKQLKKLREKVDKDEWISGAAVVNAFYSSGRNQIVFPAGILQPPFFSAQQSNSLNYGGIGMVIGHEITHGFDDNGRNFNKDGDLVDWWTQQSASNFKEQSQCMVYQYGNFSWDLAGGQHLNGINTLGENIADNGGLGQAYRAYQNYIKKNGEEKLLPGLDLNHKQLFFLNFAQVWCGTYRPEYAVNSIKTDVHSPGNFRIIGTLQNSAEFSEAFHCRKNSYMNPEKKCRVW

Row | Compound | Ki | pKi
1 | CC(N)(C[C@@H](Cc1ccc(-c2cc(Cl)ccc2F)cc1)NC(=O)c1cnn[nH]1)C(=O)O (single isomer, unassigned) [Example 1a] | 3.98 to 10 nM | –
2 | CC(C#N)(C[C@@H](Cc1ccc(-c2cc(Cl)ccc2F)cc1)NC(=O)c1cnn[nH]1)C(=O)O (single isomer, unassigned) [Example 12a] | 39.8 to 100 nM | –
3 | CC(C#N)(C[C@@H](Cc1ccc(-c2cc(Cl)ccc2F)cc1)NC(=O)c1cnn[nH]1)C(=O)O (single isomer, unassigned) [Example 12b] | ≤ 1 nM | –
4 | CCC(CO)(C[C@@H](Cc1ccc(-c2cc(Cl)ccc2F)cc1)NC(=O)c1cnn[nH]1)C(=O)O (single isomer, unassigned) [Example 14b] | – | ≧9.0
5 | CCCC(CO)(C[C@@H](Cc1ccc(-c2cc(Cl)ccc2F)cc1)NC(=O)c1cnn[nH]1)C(=O)O (single isomer, unassigned) [Example 15b] | – | ≧9.0
6 | C[C@@](CN)(C[C@@H](Cc1ccc(-c2cc(Cl)ccc2F)cc1)NC(=O)c1cnn[nH]1)C(=O)O [Example 2, (2S,4R)-2-Aminomethyl-5-(5′-chloro-2′-fluorobiphenyl-4-yl)-2-methyl-4-[(3H-[1,2,3]triazole-4-carbonyl)amino]pentanoic Acid] | ≤ 1 nM | –
7 | C[C@@](CN)(C[C@@H](Cc1ccc(-c2cc(Cl)ccc2F)cc1)NC(=O)c1ccn(C(F)F)n1)C(=O)O [Example 3, (2S,4R)-2-Aminomethyl-5-(5′-chloro-2′-fluorobiphenyl-4-yl)-4-[(1-difluoromethyl-1H-pyrazole-3-carbonyl)amino]-2-methylpentanoic Acid] | 1.26 to 3.16 nM | –
8 | CC(=O)c1cc(C(=O)N[C@H](Cc2ccc(-c3cc(Cl)ccc3F)cc2)C[C@@](C)(CN)C(=O)O)[nH]n1 [Example 4-1, (2S,4R)-4-[(5-Acetyl-2H-pyrazole-3-carbonyl)-amino]-2-aminomethyl-5-(5′-chloro-2′-fluorobiphenyl-4-yl)-2-methylpentanoic acid] | 3.98 to 10 nM | –
9 | Cc1cnc(C(=O)N[C@H](Cc2ccc(-c3cc(Cl)ccc3F)cc2)C[C@@](C)(CN)C(=O)O)o1 [Example 4-2, (2S,4R)-2-Aminomethyl-5-(5′-chloro-2′-fluorobiphenyl-4-yl)-2-methyl-4-[(5-methyl-oxazole-2-carbonyl)amino]pentanoic acid] | 1.26 to 3.16 nM | –
10 | C[C@](C[C@@H](Cc1ccc(-c2cc(Cl)ccc2F)cc1)NC(=O)c1c[nH]nn1)(C(N)=O)C(=O)O [Example 5, (2S,4R)-2-Carbamoyl-5-(5′-chloro-2′-fluorobiphenyl-4-yl)-2-methyl-4-[(1H-[1,2,3]triazole-4-carbonyl)amino]pentanoic Acid] | ≤ 1 nM | –
11 | CC(C[C@@H](Cc1ccc(-c2cc(Cl)ccc2F)cc1)NC(=O)c1c[nH]nn1)(C(=O)O)C(=O)O [Example 6, 2-{(R)-3-(5′-Chloro-2′-fluorobiphenyl-4-yl)-2-[(1H-[1,2,3]triazole-4-carbonyl)amino]propyl}-2-methylmalonic Acid] | ≤ 1 nM | –
12 | COC[C@](C)(C[C@@H](Cc1ccc(-c2cc(Cl)ccc2F)cc1)NC(=O)c1noc(=O)[nH]1)C(=O)O [Example 7, (2S,4R)-5-(5′-Chloro-2′-fluorobiphenyl-4-yl)-2-methoxymethyl-2-methyl-4-[(5-oxo-4,5-dihydro-[1,2,4]oxadiazole-3-carbonyl)amino]pentanoic Acid] | ≤ 1 nM | –
13 | COC[C@](C)(C[C@@H](Cc1ccc(-c2cc(Cl)ccc2F)cc1)NC(=O)c1ncc(C)o1)C(=O)O [Example 8-1, (2S,4R)-5-(5′-Chloro-2′-fluorobiphenyl-4-yl)-2-methoxymethyl-2-methyl-4-[(5-methyloxazole-2-carbonyl)amino]pentanoic acid] | ≤ 1 nM | –
14 | COC[C@](C)(C[C@@H](Cc1ccc(-c2cc(Cl)ccc2F)cc1)NC(=O)c1coc(C2CC2)n1)C(=O)O [Example 8-2, (2S,4R)-5-(5′-Chloro-2′-fluorobiphenyl-4-yl)-4-[(2-cyclopropyloxazole-4-carbonyl)amino]-2-methoxymethyl-2-methylpentanoic acid] | 1.26 to 3.16 nM | –
15 | COC[C@](C)(C[C@@H](Cc1ccc(-c2cc(Cl)ccc2F)cc1)NC(=O)c1ccc(Cl)cn1)C(=O)O [Example 8-3, (2S,4R)-5-(5′-Chloro-2′-fluorobiphenyl-4-yl)-4-[(5-chloropyridine-2-carbonyl)amino]-2-methoxymethyl-2-methylpentanoic acid] | 1.26 to 3.16 nM | –
16 | COC[C@](C)(C[C@@H](Cc1ccc(-c2cc(Cl)ccc2F)cc1)NC(=O)c1ncccn1)C(=O)O [Example 8-4, (2S,4R)-5-(5′-Chloro-2′-fluorobiphenyl-4-yl)-2-methoxymethyl-2-methyl-4-[(pyrimidine-2-carbonyl)amino]pentanoic acid] | ≤ 1 nM | –
17 | COC[C@](C)(C[C@@H](Cc1ccc(-c2cc(Cl)ccc2F)cc1)NC(=O)c1ccc(C(F)(F)F)cn1)C(=O)O [Example 8-5, (2S,4R)-5-(5′-Chloro-2′-fluorobiphenyl-4-yl)-2-methoxymethyl-2-methyl-4-[(5-trifluoromethylpyridine-2-carbonyl)amino]pentanoic acid] | ≤ 1 nM | –
18 | COC[C@](C)(C[C@@H](Cc1ccc(-c2cc(Cl)ccc2F)cc1)NC(=O)c1ncco1)C(=O)O [Example 8-6, (2S,4R)-5-(5′-Chloro-2′-fluorobiphenyl-4-yl)-2-methoxymethyl-2-methyl-4-[(oxazole-2-carbonyl)amino]pentanoic acid] | ≤ 1 nM | –
19 | COC[C@](C)(C[C@@H](Cc1ccc(-c2cc(Cl)ccc2F)cc1)NC(=O)c1nc[nH]n1)C(=O)O [Example 8-7, (2S,4R)-5-(5′-Chloro-2′-fluorobiphenyl-4-yl)-2-methoxymethyl-2-methyl-4-[(1H-[1,2,4]triazole-3-carbonyl)amino]pentanoic acid] | 1.26 to 3.16 nM | –
20 | CCOn1cc(C(=O)N[C@H](Cc2ccc(-c3cc(Cl)ccc3F)cc2)C[C@@](C)(COC)C(=O)O)nn1 [Example 8-8, (2S,4R)-5-(5′-Chloro-2′-fluorobiphenyl-4-yl)-4-[(1-ethoxy-1H-[1,2,3]triazole-4-carbonyl)amino]-2-methoxymethyl-2-methylpentanoic acid] | ≤ 1 nM | –
21 | COC[C@](C)(C[C@@H](Cc1ccc(-c2cc(Cl)ccc2F)cc1)NC(=O)c1cn(OC)nn1)C(=O)O [Example 8-9, (2S,4R)-5-(5′-Chloro-2′-fluorobiphenyl-4-yl)-2-methoxymethyl-4-[(1-methoxy-1H-[1,2,3]triazole-4-carbonyl)amino]-2-methylpentanoic acid] | 1.26 to 3.16 nM | –
22 | COC[C@](C)(C[C@@H](Cc1ccc(-c2cc(Cl)ccc2F)cc1)NC(=O)c1cn(CCO)nn1)C(=O)O [Example 8-10, (2S,4R)-5-(5′-Chloro-2′-fluorobiphenyl-4-yl)-4-{[1-(2-hydroxyethyl)-1H-[1,2,3]triazole-4-carbonyl]amino}-2-methoxymethyl-2-methylpentanoic acid] | 1.26 to 3.16 nM | –
23 | CCOC[C@](C)(C[C@@H](Cc1ccc(-c2cc(Cl)ccc2F)cc1)NC(=O)c1coc(C2CC2)n1)C(=O)O [Example 10, (2S,4R)-5-(5′-Chloro-2′-fluorobiphenyl-4-yl)-4-[(2-cyclopropyoxazole-4-carbonyl)amino]-2-ethoxymethyl-2-methylpentanoic Acid] | 1.26 to 3.16 nM | –

Second part, the molecule after the results:

Row | Ki | pKi | Compound
24 | 1.26 to 3.16 nM | – | O=C(N[C@H](Cc1ccc(-c2cc(Cl)ccc2F)cc1)CC(CO)(CCO)C(=O)O)c1cnn[nH]1 (single isomer, unassigned) [Example 16a]
25 | 12.6 to 31.6 nM | – | O=C(N[C@H](Cc1ccc(-c2cc(Cl)ccc2F)cc1)CC(CO)(CCO)C(=O)O)c1cnn[nH]1 (single isomer, unassigned) [Example 16b]
26 | ≤ 1 nM | – | C=CCC(CO)(C[C@@H](Cc1ccc(-c2cc(Cl)ccc2F)cc1)NC(=O)c1cnn[nH]1)C(=O)O (single isomer, unassigned) [Example 19a]
27 | – | ≧9.0 | O=C(N[C@H](Cc1ccc(-c2cc(Cl)ccc2F)cc1)CC1(C(=O)O)CCOC1)c1cnn[nH]1 (single isomer, unassigned) [Example 20b]
28 | ≤ 1 nM | – | O=C(N[C@H](Cc1ccc(-c2cc(Cl)ccc2F)cc1)CC1(C(=O)O)CCNC1)c1cnn[nH]1 (single isomer, unassigned) [Example 21a]
29 | ≤ 1 nM | – | CC(=O)N1CCC(C[C@@H](Cc2ccc(-c3cc(Cl)ccc3F)cc2)NC(=O)c2cnn[nH]2)(C(=O)O)C1 (single isomer, unassigned) [Example 22a]
30 | ≤ 1 nM | – | CCC(C#N)(C[C@@H](Cc1ccc(-c2cc(Cl)ccc2F)cc1)NC(=O)c1cnn[nH]1)C(=O)O (single isomer, unassigned) [Example 23a]
31 | 126 to 316 nM | – | CCC(C#N)(C[C@@H](Cc1ccc(-c2cc(Cl)ccc2F)cc1)NC(=O)c1cnn[nH]1)C(=O)O (single isomer, unassigned) [Example 23b]
